From ChEMBL document CHEMBL5338767, “A Molecular Toolbox of Positron Emission Tomography Tracers for General Anesthesia Mechanism Research” (J Med Chem, 2023)

Tests used:
[1] = Lipophilicity, logP of the compound; conditions: octanol/water
[2] = Dissociation constant, pKa of the compound; assay type: physicochemical
[3] = target: Glutamate NMDA receptor; GRIN1/GRIN2A (Homo sapiens, UniProt Q05586+Q12879); experiment: Binding affinity to GluN1/GluN2A receptor (unknown origin) assessed as inhibition constant; assay type: protein-complex assay
[4] = Lipophilicity, logD of compound at pH 7; conditions: buffer
[5] = target: Neuronal acetylcholine receptor; alpha6/beta2 (Homo sapiens, UniProt P17787+Q15825); experiment: Binding affinity to nACh alpha6beta2 receptor (unknown origin) assessed as inhibition constant; assay type: protein-complex assay
Mu-type opioid receptor = Mu-type opioid receptor (Homo sapiens, UniProt P35372)
[6] = target: T1, Kappa-type opioid receptor (Homo sapiens, UniProt P41145); experiment: Binding affinity to kappa opioid receptor (unknown origin) assessed as inhibition constant
[7] = target: T1, Kappa-type opioid receptor; experiment: Binding affinity to kappa opioid receptor (unknown origin)
[8] = target: T2, Gamma-aminobutyric acid receptor subunit alpha-1 (Homo sapiens, UniProt P14867); experiment: Binding affinity to GABAa alpha1 (unknown origin) assessed as inhibition constant
T2 sequence (P14867 whole entry): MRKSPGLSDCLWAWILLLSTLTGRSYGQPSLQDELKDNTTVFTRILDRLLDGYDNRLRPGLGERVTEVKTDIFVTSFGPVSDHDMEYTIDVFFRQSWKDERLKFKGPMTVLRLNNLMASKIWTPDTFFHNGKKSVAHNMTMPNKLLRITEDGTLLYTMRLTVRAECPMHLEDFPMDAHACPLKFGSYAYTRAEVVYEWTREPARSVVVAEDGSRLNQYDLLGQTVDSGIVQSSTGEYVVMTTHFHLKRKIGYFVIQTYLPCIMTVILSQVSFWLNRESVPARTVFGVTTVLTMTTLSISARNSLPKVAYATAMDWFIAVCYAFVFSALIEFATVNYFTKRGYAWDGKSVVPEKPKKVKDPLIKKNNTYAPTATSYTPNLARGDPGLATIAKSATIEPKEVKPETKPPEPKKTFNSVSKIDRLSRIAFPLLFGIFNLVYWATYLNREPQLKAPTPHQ

[9] = target: T3, Gamma-aminobutyric acid receptor subunit alpha-2 (Homo sapiens, UniProt P47869); experiment: Binding affinity to GABAa alpha2 (unknown origin) assessed as inhibition constant
T3 sequence (P47869 whole entry): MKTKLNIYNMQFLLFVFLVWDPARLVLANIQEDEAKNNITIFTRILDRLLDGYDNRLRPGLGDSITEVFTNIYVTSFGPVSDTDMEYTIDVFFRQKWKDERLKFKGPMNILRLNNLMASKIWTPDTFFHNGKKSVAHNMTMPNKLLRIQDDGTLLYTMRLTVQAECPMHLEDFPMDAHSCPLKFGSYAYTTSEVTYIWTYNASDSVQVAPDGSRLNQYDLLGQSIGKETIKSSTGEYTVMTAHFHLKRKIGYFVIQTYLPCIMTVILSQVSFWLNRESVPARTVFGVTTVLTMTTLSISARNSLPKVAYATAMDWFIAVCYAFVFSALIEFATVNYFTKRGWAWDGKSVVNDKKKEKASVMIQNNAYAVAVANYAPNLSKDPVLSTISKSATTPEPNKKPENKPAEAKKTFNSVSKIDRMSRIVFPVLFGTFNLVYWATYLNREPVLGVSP

[10] = target: T4, Gamma-aminobutyric acid receptor subunit alpha-3 (Homo sapiens, UniProt P34903); experiment: Binding affinity to GABAa alpha3 (unknown origin) assessed as inhibition constant
T4 sequence (P34903 whole entry): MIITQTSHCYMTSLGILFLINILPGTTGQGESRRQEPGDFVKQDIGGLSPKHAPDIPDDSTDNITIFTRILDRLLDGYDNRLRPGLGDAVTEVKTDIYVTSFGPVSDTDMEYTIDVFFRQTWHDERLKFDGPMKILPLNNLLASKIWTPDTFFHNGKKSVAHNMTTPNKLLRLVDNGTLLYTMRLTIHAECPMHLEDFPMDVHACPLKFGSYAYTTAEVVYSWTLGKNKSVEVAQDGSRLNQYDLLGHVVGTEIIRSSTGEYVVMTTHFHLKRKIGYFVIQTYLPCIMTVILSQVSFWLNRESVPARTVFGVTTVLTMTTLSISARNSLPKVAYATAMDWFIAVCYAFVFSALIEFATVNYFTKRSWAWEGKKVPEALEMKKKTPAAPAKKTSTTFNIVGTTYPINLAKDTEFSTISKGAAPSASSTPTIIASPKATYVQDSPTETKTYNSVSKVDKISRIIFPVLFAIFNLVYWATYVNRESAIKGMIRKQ

[11] = Binding affinity to GABA/BZ receptor (unknown origin) assessed as inhibition constant; parameters: species or system Homo sapiens
[12] = Selectivity ratio of Ki for kappa opioid receptor (unknown origin) for Ki for mu opioid receptor (unknown origin)
[13] = Selectivity ratio of Ki for kappa opioid receptor (unknown origin) for Ki for delta opioid receptor (unknown origin)
[14] = Lipophilicity, logD of compound at pH 7.4; assay type: physicochemical; conditions: buffer
[15] = Adrenal to liver ratio in rat measured at 60 mins; assay type: ADME, tissue-based; conditions: 1 h
[16] = Half life in rhesus monkey; assay type: ADME, Macaca mulatta; conditions: in vivo
[17] = Drug distribution in rhesus monkey temporal cortex assessed as dissociation constant; assay type: ADME, tissue-based, Macaca mulatta
[18] = Drug distribution in rhesus monkey temporal cortex assessed as maximum binding; assay type: ADME, tissue-based, Macaca mulatta
[19] = Drug distribution in rhesus monkey striatum assessed as maximum binding; assay type: ADME, tissue-based, Macaca mulatta
[20] = target: T5, Gamma-aminobutyric acid receptor subunit alpha-5 (Homo sapiens, UniProt P31644); experiment: Binding affinity to GABAa alpha5 (unknown origin) assessed as inhibition constant
T5 sequence (P31644 whole entry): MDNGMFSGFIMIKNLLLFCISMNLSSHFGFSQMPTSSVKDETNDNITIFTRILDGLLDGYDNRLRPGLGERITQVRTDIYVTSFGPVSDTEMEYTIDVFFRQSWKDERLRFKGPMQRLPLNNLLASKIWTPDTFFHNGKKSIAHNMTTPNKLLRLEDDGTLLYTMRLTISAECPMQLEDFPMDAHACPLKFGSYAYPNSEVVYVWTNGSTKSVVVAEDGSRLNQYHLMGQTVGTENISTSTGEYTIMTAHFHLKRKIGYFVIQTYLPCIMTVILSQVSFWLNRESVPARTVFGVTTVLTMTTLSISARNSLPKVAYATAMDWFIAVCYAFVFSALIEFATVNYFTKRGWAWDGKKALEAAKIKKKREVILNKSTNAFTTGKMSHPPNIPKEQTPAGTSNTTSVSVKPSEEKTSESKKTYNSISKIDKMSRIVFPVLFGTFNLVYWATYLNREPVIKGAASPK

Neuronal acetylcholine receptor; alpha6/beta2, sequence (P17787 whole entry): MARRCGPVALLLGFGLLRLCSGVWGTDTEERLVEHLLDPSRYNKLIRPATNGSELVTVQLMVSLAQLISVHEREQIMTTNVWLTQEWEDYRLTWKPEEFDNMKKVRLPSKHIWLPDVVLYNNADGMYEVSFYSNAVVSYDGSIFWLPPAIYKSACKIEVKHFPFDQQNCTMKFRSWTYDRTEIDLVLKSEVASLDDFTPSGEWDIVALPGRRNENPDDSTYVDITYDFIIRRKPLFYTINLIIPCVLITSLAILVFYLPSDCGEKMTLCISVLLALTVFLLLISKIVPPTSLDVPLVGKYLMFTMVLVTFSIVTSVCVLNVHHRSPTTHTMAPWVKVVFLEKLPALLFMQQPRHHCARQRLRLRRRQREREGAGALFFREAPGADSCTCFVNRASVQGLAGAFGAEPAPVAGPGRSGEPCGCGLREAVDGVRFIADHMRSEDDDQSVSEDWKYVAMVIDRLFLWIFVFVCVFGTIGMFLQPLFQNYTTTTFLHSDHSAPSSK
Neuronal acetylcholine receptor; alpha6/beta2, sequence (Q15825 whole entry): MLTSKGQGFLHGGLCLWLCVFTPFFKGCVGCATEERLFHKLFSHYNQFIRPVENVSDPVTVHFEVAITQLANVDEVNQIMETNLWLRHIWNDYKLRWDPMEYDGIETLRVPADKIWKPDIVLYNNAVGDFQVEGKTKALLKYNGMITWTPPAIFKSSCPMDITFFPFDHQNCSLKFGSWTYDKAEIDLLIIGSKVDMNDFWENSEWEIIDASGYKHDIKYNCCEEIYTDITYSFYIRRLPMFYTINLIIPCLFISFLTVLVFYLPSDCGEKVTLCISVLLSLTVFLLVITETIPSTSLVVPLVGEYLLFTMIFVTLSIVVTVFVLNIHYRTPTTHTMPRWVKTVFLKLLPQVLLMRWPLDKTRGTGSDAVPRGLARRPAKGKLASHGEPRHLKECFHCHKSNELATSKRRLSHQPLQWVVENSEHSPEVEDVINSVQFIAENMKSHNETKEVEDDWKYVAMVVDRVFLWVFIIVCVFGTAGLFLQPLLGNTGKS
Glutamate NMDA receptor; GRIN1/GRIN2A, sequence (Q12879 whole entry, other chains not shown): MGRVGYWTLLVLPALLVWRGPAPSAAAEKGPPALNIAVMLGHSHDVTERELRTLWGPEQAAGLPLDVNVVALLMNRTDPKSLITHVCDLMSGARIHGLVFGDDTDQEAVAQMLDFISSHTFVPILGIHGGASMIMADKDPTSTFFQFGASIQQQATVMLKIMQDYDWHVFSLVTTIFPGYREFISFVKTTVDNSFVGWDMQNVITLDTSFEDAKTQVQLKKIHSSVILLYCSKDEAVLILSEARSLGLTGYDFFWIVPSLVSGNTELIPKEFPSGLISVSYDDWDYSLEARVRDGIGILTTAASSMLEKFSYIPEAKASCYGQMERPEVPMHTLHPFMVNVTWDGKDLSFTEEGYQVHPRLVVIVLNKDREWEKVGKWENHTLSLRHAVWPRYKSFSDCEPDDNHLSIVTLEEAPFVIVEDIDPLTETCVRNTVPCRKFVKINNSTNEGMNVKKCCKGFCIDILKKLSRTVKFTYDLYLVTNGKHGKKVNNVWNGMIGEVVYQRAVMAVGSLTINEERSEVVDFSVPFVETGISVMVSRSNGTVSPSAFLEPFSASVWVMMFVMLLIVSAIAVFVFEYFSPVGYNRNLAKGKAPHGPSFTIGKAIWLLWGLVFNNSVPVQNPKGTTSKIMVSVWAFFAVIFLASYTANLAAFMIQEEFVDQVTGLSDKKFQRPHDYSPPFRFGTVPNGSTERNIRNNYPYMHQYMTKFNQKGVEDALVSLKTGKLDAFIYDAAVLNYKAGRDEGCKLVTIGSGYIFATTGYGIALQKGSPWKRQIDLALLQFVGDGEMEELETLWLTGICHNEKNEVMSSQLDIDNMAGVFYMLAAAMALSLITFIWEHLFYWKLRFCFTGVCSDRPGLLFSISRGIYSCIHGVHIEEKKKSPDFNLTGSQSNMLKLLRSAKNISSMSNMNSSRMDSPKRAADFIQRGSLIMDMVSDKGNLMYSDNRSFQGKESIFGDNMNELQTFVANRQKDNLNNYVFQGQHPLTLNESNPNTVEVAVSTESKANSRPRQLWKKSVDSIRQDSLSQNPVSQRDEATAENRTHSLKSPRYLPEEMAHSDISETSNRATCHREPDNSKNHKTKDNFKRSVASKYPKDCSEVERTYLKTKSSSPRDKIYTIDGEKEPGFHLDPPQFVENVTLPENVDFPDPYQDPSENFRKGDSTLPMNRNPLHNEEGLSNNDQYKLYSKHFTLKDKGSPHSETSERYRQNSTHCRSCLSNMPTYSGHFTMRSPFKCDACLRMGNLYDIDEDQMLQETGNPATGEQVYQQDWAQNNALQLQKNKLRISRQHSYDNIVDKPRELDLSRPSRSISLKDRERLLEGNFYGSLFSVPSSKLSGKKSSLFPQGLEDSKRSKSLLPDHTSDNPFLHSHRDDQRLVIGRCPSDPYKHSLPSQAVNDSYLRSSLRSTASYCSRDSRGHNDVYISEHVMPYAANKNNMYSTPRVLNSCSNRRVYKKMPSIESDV
T1 sequence (P41145 whole entry): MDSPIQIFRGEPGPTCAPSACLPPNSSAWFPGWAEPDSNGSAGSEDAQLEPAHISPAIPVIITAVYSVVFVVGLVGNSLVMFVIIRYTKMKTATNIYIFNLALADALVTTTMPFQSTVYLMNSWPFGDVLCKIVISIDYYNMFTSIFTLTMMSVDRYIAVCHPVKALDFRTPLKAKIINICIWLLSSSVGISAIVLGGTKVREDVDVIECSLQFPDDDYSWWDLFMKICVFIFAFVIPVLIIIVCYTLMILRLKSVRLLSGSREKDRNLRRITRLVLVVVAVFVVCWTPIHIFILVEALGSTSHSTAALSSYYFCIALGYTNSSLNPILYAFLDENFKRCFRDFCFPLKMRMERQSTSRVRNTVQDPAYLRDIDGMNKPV
Mu-type opioid receptor, sequence (P35372 whole entry): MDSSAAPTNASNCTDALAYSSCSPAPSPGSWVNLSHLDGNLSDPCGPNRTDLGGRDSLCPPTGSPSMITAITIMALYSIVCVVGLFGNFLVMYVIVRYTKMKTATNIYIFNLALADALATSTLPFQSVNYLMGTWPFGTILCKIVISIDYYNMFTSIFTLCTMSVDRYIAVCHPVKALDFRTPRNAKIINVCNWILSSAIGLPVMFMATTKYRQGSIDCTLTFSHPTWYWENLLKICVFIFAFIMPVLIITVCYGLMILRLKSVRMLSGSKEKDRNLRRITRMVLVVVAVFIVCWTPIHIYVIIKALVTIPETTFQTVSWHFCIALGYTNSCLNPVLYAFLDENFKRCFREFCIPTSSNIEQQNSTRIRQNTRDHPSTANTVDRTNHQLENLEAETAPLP

Row | SMILES | logP [1] | pKa [2] | logD [4] | further results
1 | CCCc1cc(Cl)cc2[nH]c(=O)c(-c3cccc(O[11CH3])c3)c(O)c12 | 3.78 | 9.06 | – | Ki [3]: 7200 nM
2 | [18F]CCCc1cncc(OC[C@@H]2C=CCN2)c1 | 1.42 | 8.21 | 0.71 | Ki [5]: 0.36 nM
3 | N[11C](=O)c1ccc(Oc2ccc(CN3CCC[C@H]3c3cccnc3)cc2)c(Cl)c1 | 3.67 | 8.45 | 2.71 | Ki (Mu-type opioid receptor): 25.8 nM; Ki [6]: 0.72 nM; Kd [7]: 0.028 nM
4 | CN(C)c1cccc2c(S(=O)(=O)N/N=C/c3ccc([18F])cc3)cccc12 | 4.94 | – | 3.92 | –
5 | FCOC(C(F)(F)F)C(F)(F)[18F] (centres undefined) | 2.24 | – | 2.5 | –
6 | [11CH3]OCc1scnc1N1CCN(C[C@H]2COc3ccccc3O2)CC1 | 2.65 | 7.21 | 2.02 | –
7 | C[11CH2]OC(=O)c1cncn1[C@H](C)c1ccccc1 | 1.83 | 4.23 | 3.05 | –
8 | C[C@@H](C[11CH3])CCc1cnc(Cl)c(/C=C/c2ccncc2)c1 | 4.94 | – | – | Ki [5]: 0.077 nM
9 | [18F]c1ncccc1OC[C@H]1CCN1 | – | 8.95 | – | –
10 | FC(F)([18F])C(Cl)Br (centres undefined) | 2.28 | – | 2.33 | –
11 | [18F]CCCc1cncc(OC[C@@H]2CCN2)c1 | 0.86 | 9.09 | -1.44 | Ki [5]: 0.67 nM
12 | COc1cnc(OCc2cn(-c3ccc([18F])c(C)c3)nn2)nc1 | 2.76 | 0.73 | 1.55 | –
13 | CCN(CC)C[C@@H]1CN(C(=O)COC)CCN1C(=O)Cc1ccc(C)c(C)c1 | – | – | – | Ki [6]: 0.28 nM
14 | CCOC(=O)c1ncn2c1CN(C)C(=O)c1cc(N=[N+]=[N-])ccc1-2 [Ro-154513] | – | – | – | Ki [8]: 7 nM; Ki [9]: 7 nM; Ki [10]: 7 nM; Ki [11]: 0.7 nM
15 | CC(OC(F)F)C(F)(F)F (centres undefined) | 2.47 | – | 2.12 | –
16 | NC(=O)c1ccc(Oc2ccc(CN3CCC[C@H]3c3cccnc3)cc2)c([18F])c1 | 3.27 | 8.45 | 2.07 | –
17 | [18F]c1ccc2cnn(N=C3NCCN3)c2c1 | 1.11 | 7.94 | 0.09 | –
18 | Cc1cn([C@H]2C[C@H]([18F])[C@@H](CO)O2)c(=O)[nH]c1=O [ALOVUDINE F-18] | -0.41 | 13.7 | -0.2 | –
19 | [11CH3]OC(=O)c1cncn1Cc1ccccc1 | 1.18 | 4.08 | 2.19 | –
20 | CCN(CCF)C[C@@H]1CN(C(=O)COC)CCN1C(=O)Cc1ccc(C)c(C)c1 | – | – | – | Ki [6]: 0.43 nM; Ratio Ki [12]: 17; Ratio Ki [13]: 323
21 | CCOC(=O)c1ncn2c1CN(C)C(=O)c1cc([18F])ccc1-2 | 1.11 | 0.86 | – | –
22 | [18F]c1ccc(C2CC3CCCC2N3)cn1 (single isomer, unassigned; (-)) | 1.75 | 9.28 | -0.76 | –

Row | SMILES | logP [1] | pKa [2] | logD [4] | further results
23 | CCN(CC)C[C@@H]1CN(C(=O)CO[11CH3])CCN1C(=O)Cc1ccc(C)c(C)c1 | 1.67 | 8.6 | – | Ki [6]: 0.28 nM
24 | CN1C2CCCC1C(c1cncc(-c3cccc([18F])n3)c1)C2 (centres undefined) | 2.89 | 9.24 | – | Ki [5]: 0.95 nM
25 | [11CH3]Oc1cccc(-c2c(O)c3c(I)cc(Cl)cc3[nH]c2=O)c1 | 3.81 | 8.83 | 1.91 | Ki [3]: 10300 nM
26 | [11CH3]C(=O)c1ccc2c(c1)CCN(CCCCc1ccccc1)CC2O (centres undefined) | 4.14 | 8.78 | 2.94 | –
27 | N[C@H](C[C@H]1CC(C(=O)O)=NN1c1ccc(CCCF)cc1)C(=O)O | – | – | – | Ki [3]: 52 nM
28 | Oc1ccc2c(c1)CCN(CCCCc1ccccc1[18F])C[C@@H]2O | 4.03 | 8.68 | 2.07 | logD [14]: 2.2
29 | CN([11CH3])Cc1ccccc1Sc1ccc(C#N)cc1N | 3.31 | 9.43 | 0.89 | –
30 | CN1C2CCCC1C(c1cncc(-c3cccnc3[18F])c1)C2 (centres undefined) | 2.47 | 9.18 | – | Ki [5]: 0.06 nM
31 | C[C@H](c1ccccc1)n1cncc1C(=O)OCC[18F] | 1.69 | 3.83 | 2.99 | Ratio [15]: 14.48
32 | CCOC(=O)c1ncn2c1CN([11CH3])C(=O)c1cc(F)ccc1-2 | 1.11 | 0.86 | – | –
33 | CN([11CH3])[C@]1(c2ccccc2Cl)CCCCC1=O | 2.84 | 6.92 | 2.93 | half-life [16]: > 15 min; Kd [17]: 7000 nM; Kd [18]: 4000 nM; Kd [19]: 14000 nM
34 | C[C@H](c1ccc(Cl)cc1)n1cncc1C(=O)OCC[18F] | 2.25 | 3.76 | 3.76 | –
35 | CC(C)C[C@H](N)[11C](=O)O | -0.29 | 10.2 | -1.7 | –
36 | CCN(CCF)C[C@@H]1CN(C(=O)CO[11CH3])CCN1C(=O)Cc1ccc(C)c(C)c1 | 1.53 | 7.51 | – | –
37 | O=S1(=O)c2cc(N3CCN4CCC3CC4)ccc2-c2cccc([18F])c21 | 2.71 | 8.68 | 1.72 | –
38 | N#Cc1cc([18F])cc(C#Cc2ccccn2)c1 | 3.25 | 1.89 | 3.38 | –
39 | FC(F)OC(F)C(F)(F)F (centres undefined) | 2.16 | – | 1.88 | –
40 | CC(=O)N(Cc1ccccc1OCC[18F])c1ccccc1Oc1ccccc1 | 4.51 | – | – | –
41 | [11CH3]n1c2c(c3ccccc31)C[C@@]1(O)[C@H]3Cc4ccc(O)c5c4[C@@]1(CCN3CC1CC1)[C@H]2O5 | 3.31 | 14.2 | – | –
42 | CN1CC=C[C@H]1COc1cccnc1[18F] | 1.21 | 8.09 | 0.3 | Ki [5]: 0.5 nM
43 | CCOC(=O)c1ncn2c1CN([11CH3])C(=O)c1cc(N=[N+]=[N-])ccc1-2 | – | 8.45 | – | Ki [20]: ~0.5 nM
